{
  "source": "the NIST ThermoML archive (doi:10.1021/je301219c)",
  "conditions": "Liquid, Ebulliometric method (Recirculating still)",
  "note": "Numbers after ± are expanded uncertainties.",
  "data": [
    {"molecule": "CCN(CC)CCO", "note": "[(diethylamino)ethanol]", "values": [
      {"measurement": "vapor or sublimation pressure", "setting": "418.34 K", "value": "60 ± 1.2", "unit": "kPa"},
      {"measurement": "vapor or sublimation pressure", "setting": "435.94 K", "value": "101.3 ± 2.1", "unit": "kPa"}
    ]},
    {"molecule": "CCNCC", "note": "[diethylamine]", "values": [
      {"measurement": "vapor or sublimation pressure", "setting": "313.64 K", "value": "60 ± 1", "unit": "kPa"},
      {"measurement": "vapor or sublimation pressure", "setting": "328.67 K", "value": "101.3 ± 1.8", "unit": "kPa"}
    ]},
    {"molecule": "CO", "note": "[methanol]", "values": [
      {"measurement": "vapor or sublimation pressure", "setting": "324.92 K", "value": "60 ± 0.87", "unit": "kPa"},
      {"measurement": "vapor or sublimation pressure", "setting": "337.82 K", "value": "101.3 ± 1.6", "unit": "kPa"}
    ]}
  ]
}
